{"source": "ChEMBL document CHEMBL1124701", "about": "“Some benzyl-substituted imidazoles, triazoles, tetrazoles, pyridinethiones, and structural relatives as multisubstrate inhibitors of dopamine beta-hydroxylase. 4. Structure-activity relationships at the copper binding site” (J Med Chem, 1990)", "data": [{"molecular_target": "T1, Dopamine beta-hydroxylase (Bos taurus, UniProt P15101)", "T1 sequence (P15101 whole entry)": "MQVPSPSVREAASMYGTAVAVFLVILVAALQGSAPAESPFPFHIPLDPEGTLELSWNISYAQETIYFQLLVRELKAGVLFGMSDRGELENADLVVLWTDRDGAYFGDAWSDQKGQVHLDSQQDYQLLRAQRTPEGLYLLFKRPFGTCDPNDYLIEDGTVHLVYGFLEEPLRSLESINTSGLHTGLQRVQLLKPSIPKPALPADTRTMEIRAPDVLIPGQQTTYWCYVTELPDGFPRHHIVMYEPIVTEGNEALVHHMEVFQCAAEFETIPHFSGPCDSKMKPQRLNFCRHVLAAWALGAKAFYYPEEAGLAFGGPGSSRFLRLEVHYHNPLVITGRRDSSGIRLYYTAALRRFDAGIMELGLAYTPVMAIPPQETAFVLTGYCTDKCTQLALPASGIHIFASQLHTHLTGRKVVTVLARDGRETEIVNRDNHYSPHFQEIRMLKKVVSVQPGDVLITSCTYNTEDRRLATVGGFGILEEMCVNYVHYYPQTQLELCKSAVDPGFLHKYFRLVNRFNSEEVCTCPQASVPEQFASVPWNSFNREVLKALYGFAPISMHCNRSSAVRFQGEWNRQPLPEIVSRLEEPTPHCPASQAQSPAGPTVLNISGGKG", "experiment": "Inhibitory activity was determined against bovine dopamine beta-hydroxylase (DBH)", "units": {"IC50": "µM"}, "values": [{"smiles": "NCc1nccn1Cc1ccc(O)cc1", "IC50": 165}, {"smiles": "Fc1cccc(CN2CCNC2=S)c1", "IC50": 3.7}, {"smiles": "Oc1c(F)cc(Cn2cnnc2S)cc1F", "IC50": 0.035}, {"smiles": "Sc1nnnn1Cc1ccccc1", "IC50": 16}, {"smiles": "Fc1cc(F)cc(CN2CCN=C2S)c1", "IC50": 1.4}, {"smiles": "O=C(O)c1nccn1Cc1ccccc1", "IC50": 57}, {"smiles": "Fc1cccc(Cn2cnnc2S)c1", "IC50": 1.9}, {"smiles": "Fc1cc(F)cc(Cn2nc[nH]c2=S)c1", "IC50": 6.2}, {"smiles": "Fc1cc(F)cc(Cn2cccnc2=S)c1", "IC50": 2.8}, {"smiles": "CSc1nccn1CCCc1ccc(O)cc1", "IC50": 79}, {"smiles": "Fc1cc(F)cc(Cc2cccnc2S)c1", "IC50": 13.4}, {"smiles": "Sc1ncnn1Cc1ccccc1", "IC50": 75}, {"smiles": "Fc1cccc(Cn2ncnc2S)c1", "IC50": 15}, {"smiles": "O=C(O)c1nccn1Cc1ccc(O)cc1", "IC50": 112}, {"smiles": "Fc1cc(F)cc(Cn2nnnc2S)c1", "IC50": 1.54}]}, {"molecular_target": "T2, Dopamine beta-hydroxylase (Bos taurus) (UniProt P15101)", "T2 sequence (whole entry)": "T1 sequence (P15101 whole entry)", "experiment": "Percent inhibition against bovine dopamine beta-hydroxylase (DBH) at 10e-5 M concentration", "units": {"inhibition": "%"}, "values": [{"smiles": "S=C1NCCN1Cc1ccccc1", "inhibition": 5}, {"smiles": "S=c1ncccn1Cc1ccccc1", "inhibition": 5}, {"smiles": "Sc1cnnn1Cc1ccccc1", "inhibition": 0}, {"smiles": "Fc1cccc(Cn2cccnc2=S)c1", "inhibition": 15}, {"smiles": "Fc1cccc(Cc2cccnc2S)c1", "inhibition": 34}, {"smiles": "Sc1ncccc1Cc1ccccc1", "inhibition": 26}]}, {"molecular_target": "T2, Dopamine beta-hydroxylase (Bos taurus)", "experiment": "Percent inhibition against bovine dopamine beta-hydroxylase (DBH) at 10e-4 M concentration", "units": {"inhibition": "%"}, "values": [{"smiles": "O=C(O)Cc1nccn1Cc1ccc(O)cc1", "inhibition": 0}, {"smiles": "Nc1nccn1Cc1ccc(O)cc1", "inhibition": 4}, {"smiles": "Oc1ccc(Cn2ccnc2)cc1", "inhibition": 17}, {"smiles": "O/N=C/c1nccn1Cc1ccccc1", "inhibition": 10}, {"smiles": "OCc1nccn1Cc1ccccc1", "inhibition": 0}, {"smiles": "O=C(O)Cc1nccn1Cc1ccccc1", "inhibition": 0}]}]}
